Values belong to the compound of their own block, whether it stands above or below them.
Legend:
Assay in all cases: KINOMEscan competition binding
Settings in all cases: compound 10.0 µM
ABL1 (human) = ABL1 (human) (UniProt P00519)
[1] = test system: ABL1 (human), P00519 [H396P]
BLK (human) = BLK (human) (UniProt P51451)
BMPR1A (human) = BMPR1A (human) (UniProt P36894)
BMX (human) = BMX (human) (UniProt P51813)
CDC42BPA (human) = CDC42BPA (human) (UniProt Q5VT25)
DCLK1 (human) = DCLK1 (human) (UniProt O15075)
[2] = test system: EGFR (human), P00533 [G719C; 746-750 del]
EPHA3 (human) = EPHA3 (human) (UniProt P29320)
Chain of EPHA3 (human) (P29320 whole entry, looked up): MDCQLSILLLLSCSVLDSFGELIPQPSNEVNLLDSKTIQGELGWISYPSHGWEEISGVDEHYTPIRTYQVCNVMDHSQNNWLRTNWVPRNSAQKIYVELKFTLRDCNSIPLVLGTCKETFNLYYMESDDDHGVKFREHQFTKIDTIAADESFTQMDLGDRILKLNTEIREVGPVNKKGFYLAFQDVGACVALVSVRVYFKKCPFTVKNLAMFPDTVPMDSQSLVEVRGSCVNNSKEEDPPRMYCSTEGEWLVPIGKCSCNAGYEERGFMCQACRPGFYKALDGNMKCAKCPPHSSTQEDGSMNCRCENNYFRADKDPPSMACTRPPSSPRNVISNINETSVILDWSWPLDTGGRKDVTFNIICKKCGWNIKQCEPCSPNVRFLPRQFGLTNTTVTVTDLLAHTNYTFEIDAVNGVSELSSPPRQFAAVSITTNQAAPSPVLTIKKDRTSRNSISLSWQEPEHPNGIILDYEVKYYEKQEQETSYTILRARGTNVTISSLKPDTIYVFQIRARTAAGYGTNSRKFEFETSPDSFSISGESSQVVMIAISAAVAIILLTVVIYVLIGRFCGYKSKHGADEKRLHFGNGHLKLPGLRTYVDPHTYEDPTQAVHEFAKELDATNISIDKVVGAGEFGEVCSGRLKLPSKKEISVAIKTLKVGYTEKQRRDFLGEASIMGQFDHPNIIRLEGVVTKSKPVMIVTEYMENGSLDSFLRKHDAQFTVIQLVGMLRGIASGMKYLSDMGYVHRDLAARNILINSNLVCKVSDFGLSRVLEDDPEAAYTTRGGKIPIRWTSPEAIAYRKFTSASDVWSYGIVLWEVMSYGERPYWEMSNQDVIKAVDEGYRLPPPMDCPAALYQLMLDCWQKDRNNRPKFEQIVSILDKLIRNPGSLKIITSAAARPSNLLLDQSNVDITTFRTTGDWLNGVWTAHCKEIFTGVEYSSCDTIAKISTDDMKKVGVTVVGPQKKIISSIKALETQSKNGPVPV

EPHA4 (human) = EPHA4 (human) (UniProt P54764)
EPHA5 (human) = EPHA5 (human) (UniProt P54756)
EPHA7 (human) = EPHA7 (human) (UniProt Q15375)
FGFR2 (human) = FGFR2 (human) (UniProt P21802)
LATS1 (human) = LATS1 (human) (UniProt O95835)
MAP2K2 (human) = MAP2K2 (human) (UniProt P36507)
MAP3K10 (human) = MAP3K10 (human) (UniProt Q02779)
MAP3K11 (human) = MAP3K11 (human) (UniProt Q16584)
MAP3K9 (human) = MAP3K9 (human) (UniProt P80192)
Chain of MAP3K9 (human) (P80192 whole entry, looked up): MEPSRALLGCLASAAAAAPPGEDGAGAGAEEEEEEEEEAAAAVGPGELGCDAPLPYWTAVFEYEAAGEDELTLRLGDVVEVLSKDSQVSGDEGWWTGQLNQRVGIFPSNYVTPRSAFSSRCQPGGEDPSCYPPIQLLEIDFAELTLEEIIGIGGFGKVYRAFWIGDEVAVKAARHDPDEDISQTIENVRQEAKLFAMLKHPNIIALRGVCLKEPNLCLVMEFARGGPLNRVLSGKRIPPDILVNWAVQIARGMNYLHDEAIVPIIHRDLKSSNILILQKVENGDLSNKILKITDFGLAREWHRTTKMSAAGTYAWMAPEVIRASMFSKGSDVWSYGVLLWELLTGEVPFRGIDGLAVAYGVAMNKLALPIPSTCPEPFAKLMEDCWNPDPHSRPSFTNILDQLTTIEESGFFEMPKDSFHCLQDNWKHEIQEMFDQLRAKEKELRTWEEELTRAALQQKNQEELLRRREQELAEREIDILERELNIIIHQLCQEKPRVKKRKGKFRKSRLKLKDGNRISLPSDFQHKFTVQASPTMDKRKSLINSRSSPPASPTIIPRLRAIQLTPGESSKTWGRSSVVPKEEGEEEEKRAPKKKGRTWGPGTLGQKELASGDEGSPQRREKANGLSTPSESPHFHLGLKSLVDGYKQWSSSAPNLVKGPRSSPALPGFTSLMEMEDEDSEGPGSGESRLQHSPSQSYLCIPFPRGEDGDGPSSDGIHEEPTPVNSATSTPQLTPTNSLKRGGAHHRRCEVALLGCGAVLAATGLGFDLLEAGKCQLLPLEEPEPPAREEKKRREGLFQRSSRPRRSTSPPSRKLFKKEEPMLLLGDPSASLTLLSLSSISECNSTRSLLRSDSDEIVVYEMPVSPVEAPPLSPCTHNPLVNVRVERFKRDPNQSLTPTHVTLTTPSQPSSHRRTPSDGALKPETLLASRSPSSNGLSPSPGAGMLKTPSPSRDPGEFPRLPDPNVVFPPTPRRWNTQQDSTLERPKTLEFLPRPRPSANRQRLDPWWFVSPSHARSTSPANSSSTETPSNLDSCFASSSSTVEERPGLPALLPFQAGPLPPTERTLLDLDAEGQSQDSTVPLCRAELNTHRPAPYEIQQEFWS

MAP4K1 (human) = MAP4K1 (human) (UniProt Q92918)
MAPK11 (human) = MAPK11 (human) (UniProt Q15759)
MAPK7 (human) = MAPK7 (human) (UniProt Q13164)
MLTK (human) = MLTK (human) (UniProt Q9NYL2)
PAK1 (human) = PAK1 (human) (UniProt Q13153)
Chain of PAK1 (human) (Q13153 whole entry, looked up): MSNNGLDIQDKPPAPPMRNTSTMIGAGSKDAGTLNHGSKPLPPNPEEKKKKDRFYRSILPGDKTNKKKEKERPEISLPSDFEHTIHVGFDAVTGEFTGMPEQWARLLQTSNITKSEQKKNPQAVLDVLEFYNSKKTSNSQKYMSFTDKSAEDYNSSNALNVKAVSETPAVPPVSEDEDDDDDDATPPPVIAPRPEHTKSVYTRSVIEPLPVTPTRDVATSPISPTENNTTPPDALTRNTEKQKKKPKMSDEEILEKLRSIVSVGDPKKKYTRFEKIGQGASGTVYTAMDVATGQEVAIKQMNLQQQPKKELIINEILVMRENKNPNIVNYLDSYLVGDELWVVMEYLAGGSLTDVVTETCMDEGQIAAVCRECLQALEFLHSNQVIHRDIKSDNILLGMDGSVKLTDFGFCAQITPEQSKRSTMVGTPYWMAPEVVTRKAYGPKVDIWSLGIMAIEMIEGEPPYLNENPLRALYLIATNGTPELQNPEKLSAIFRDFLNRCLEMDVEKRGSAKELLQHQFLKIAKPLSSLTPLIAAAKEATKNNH

PAK6 (human) = PAK6 (human) (UniProt Q9NQU5)
PAK7 (human) = PAK7 (human) (UniProt Q9P286)
PIK3CA (human) = PIK3CA (human) (UniProt P42336)
Chain of PIK3CA (human) (P42336 whole entry, looked up): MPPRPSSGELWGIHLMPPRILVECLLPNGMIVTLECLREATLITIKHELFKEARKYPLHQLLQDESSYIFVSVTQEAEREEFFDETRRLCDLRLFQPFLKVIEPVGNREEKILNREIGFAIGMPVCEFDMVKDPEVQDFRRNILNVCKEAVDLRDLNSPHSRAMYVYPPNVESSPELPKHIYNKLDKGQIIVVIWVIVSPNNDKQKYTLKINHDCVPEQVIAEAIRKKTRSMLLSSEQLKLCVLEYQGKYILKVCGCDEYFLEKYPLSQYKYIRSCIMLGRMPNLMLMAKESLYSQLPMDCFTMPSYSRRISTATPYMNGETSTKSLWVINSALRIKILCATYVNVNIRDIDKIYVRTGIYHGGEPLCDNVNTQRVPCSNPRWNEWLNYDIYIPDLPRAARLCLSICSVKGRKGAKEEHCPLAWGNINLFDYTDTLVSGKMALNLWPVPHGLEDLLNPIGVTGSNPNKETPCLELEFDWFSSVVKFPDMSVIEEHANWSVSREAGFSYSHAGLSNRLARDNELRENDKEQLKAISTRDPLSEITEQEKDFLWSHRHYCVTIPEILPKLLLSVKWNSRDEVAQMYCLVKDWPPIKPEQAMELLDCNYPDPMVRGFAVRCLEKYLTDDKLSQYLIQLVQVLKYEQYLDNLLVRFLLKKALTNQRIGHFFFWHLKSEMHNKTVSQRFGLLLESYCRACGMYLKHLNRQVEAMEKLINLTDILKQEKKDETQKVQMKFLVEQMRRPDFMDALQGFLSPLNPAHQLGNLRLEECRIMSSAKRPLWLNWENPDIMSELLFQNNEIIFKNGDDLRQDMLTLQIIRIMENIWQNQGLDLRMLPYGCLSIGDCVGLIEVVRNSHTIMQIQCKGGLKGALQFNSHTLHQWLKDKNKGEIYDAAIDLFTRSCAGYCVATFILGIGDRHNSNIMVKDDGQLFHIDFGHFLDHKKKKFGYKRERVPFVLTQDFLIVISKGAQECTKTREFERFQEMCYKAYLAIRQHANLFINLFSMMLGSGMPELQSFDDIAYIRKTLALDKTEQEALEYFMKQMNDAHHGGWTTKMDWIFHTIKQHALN

PIK3CD (human) = PIK3CD (human) (UniProt O00329)
PKMYT1 (human) = PKMYT1 (human) (UniProt Q99640)
PRKACA (human) = PRKACA (human) (UniProt P17612)
PRKCE (human) = PRKCE (human) (UniProt Q02156)
PRKCH (human) = PRKCH (human) (UniProt P24723)
PRKG2 (human) = PRKG2 (human) (UniProt Q13237)
PRKX (human) = PRKX (human) (UniProt P51817)
RPS6KA4 KD1 (human) = RPS6KA4 KD1 (human) (UniProt O75676)
Chain of RPS6KA4 KD1 (human) (O75676 whole entry, looked up): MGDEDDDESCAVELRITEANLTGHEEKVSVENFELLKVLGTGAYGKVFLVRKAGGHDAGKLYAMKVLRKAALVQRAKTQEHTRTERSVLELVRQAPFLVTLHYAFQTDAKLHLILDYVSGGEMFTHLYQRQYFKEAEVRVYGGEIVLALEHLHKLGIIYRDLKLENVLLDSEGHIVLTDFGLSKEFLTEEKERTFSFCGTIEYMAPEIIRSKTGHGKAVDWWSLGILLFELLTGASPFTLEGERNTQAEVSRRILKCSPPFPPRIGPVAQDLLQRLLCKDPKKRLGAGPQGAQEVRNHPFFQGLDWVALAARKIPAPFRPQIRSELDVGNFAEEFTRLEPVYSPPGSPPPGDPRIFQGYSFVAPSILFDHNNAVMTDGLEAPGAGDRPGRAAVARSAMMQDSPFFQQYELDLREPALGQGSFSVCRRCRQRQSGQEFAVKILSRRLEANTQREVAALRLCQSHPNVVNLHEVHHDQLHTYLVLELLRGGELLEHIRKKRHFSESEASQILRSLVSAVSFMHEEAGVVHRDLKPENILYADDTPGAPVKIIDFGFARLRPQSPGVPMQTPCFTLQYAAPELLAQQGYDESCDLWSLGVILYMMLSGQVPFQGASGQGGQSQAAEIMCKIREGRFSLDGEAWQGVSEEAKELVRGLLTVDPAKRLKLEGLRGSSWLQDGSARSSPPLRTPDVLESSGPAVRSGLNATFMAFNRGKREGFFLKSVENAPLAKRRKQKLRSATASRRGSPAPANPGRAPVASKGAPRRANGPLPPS

RPS6KA5 KD1 (human) = RPS6KA5 KD1 (human) (UniProt O75582)
SRMS (human) = SRMS (human) (UniProt Q9H3Y6)
STK35 (human) = STK35 (human) (UniProt Q8TDR2)
Chain of STK35 (human) (Q8TDR2 whole entry, looked up): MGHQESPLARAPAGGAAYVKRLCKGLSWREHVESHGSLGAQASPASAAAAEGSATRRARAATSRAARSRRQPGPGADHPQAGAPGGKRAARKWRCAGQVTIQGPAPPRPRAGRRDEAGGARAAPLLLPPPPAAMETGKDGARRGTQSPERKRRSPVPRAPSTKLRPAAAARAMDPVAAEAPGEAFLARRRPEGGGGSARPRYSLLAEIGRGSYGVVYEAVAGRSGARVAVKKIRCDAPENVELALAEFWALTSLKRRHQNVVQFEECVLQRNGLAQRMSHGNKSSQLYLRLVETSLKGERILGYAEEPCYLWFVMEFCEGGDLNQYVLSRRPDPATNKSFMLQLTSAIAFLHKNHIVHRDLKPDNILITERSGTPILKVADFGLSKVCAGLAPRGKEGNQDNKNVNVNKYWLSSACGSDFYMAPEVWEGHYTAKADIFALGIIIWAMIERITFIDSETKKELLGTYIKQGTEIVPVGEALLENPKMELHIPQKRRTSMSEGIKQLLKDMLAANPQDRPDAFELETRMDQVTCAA

STK38L (human) = STK38L (human) (UniProt Q9Y2H1)
TESK1 (human) = TESK1 (human) (UniProt Q15569)
TGFBR1 (human) = TGFBR1 (human) (UniProt P36897)
WEE1 (human) = WEE1 (human) (UniProt P30291)
WEE2 (human) = WEE2 (human) (UniProt P0C1S8)

kinase still bound, per cent of control (ABL1 (human)): 85%
kinase still bound, per cent of control [1]: 88%
kinase still bound, per cent of control (BLK (human)): 100%
kinase still bound, per cent of control (BMPR1A (human)): 100%
kinase still bound, per cent of control (BMX (human)): 100%
kinase still bound, per cent of control (CDC42BPA (human)): 100%
kinase still bound, per cent of control (DCLK1 (human)): 24%
kinase still bound, per cent of control [2]: 100%
kinase still bound, per cent of control (EPHA3 (human)): 100%
kinase still bound, per cent of control (EPHA4 (human)): 97%
kinase still bound, per cent of control (EPHA5 (human)): 100%
kinase still bound, per cent of control (EPHA7 (human)): 100%
kinase still bound, per cent of control (FGFR2 (human)): 100%
kinase still bound, per cent of control (LATS1 (human)): 88%
kinase still bound, per cent of control (MAP2K2 (human)): 90%
kinase still bound, per cent of control (MAP3K10 (human)): 99%
kinase still bound, per cent of control (MAP3K11 (human)): 100%
kinase still bound, per cent of control (MAP3K9 (human)): 100%
kinase still bound, per cent of control (MAP4K1 (human)): 98%
kinase still bound, per cent of control (MAPK11 (human)): 100%
kinase still bound, per cent of control (MAPK7 (human)): 65%
kinase still bound, per cent of control (MLTK (human)): 100%
kinase still bound, per cent of control (PAK1 (human)): 99%
kinase still bound, per cent of control (PAK6 (human)): 100%
kinase still bound, per cent of control (PAK7 (human)): 100%
kinase still bound, per cent of control (PIK3CA (human)): 100%
kinase still bound, per cent of control (PIK3CD (human)): 100%
kinase still bound, per cent of control (PKMYT1 (human)): 93%
kinase still bound, per cent of control (PRKACA (human)): 100%
kinase still bound, per cent of control (PRKCE (human)): 100%
kinase still bound, per cent of control (PRKCH (human)): 95%
kinase still bound, per cent of control (PRKG2 (human)): 90%
kinase still bound, per cent of control (PRKX (human)): 86%
kinase still bound, per cent of control (RPS6KA4 KD1 (human)): 100%
kinase still bound, per cent of control (RPS6KA5 KD1 (human)): 87%
kinase still bound, per cent of control (SRMS (human)): 96%
kinase still bound, per cent of control (STK35 (human)): 100%
kinase still bound, per cent of control (STK38L (human)): 100%
kinase still bound, per cent of control (TESK1 (human)): 91%
kinase still bound, per cent of control (TGFBR1 (human)): 100%
kinase still bound, per cent of control (WEE1 (human)): 100%
kinase still bound, per cent of control (WEE2 (human)): 100%
Structure (SMILES): CN1CCN(c2ccc(C(=O)Nc3ncc4c(n3)N(C)c3ccccc3C(=O)N4C)cc2)CC1

kinase still bound, per cent of control (ABL1 (human)): 100%
kinase still bound, per cent of control [1]: 100%
kinase still bound, per cent of control (BLK (human)): 93%
kinase still bound, per cent of control (BMPR1A (human)): 100%
kinase still bound, per cent of control (BMX (human)): 96%
kinase still bound, per cent of control (CDC42BPA (human)): 100%
kinase still bound, per cent of control (DCLK1 (human)): 56%
kinase still bound, per cent of control [2]: 61%
kinase still bound, per cent of control (EPHA3 (human)): 81%
kinase still bound, per cent of control (EPHA4 (human)): 95%
kinase still bound, per cent of control (EPHA5 (human)): 99%
kinase still bound, per cent of control (EPHA7 (human)): 100%
kinase still bound, per cent of control (FGFR2 (human)): 100%
kinase still bound, per cent of control (LATS1 (human)): 94%
kinase still bound, per cent of control (MAP2K2 (human)): 100%
kinase still bound, per cent of control (MAP3K10 (human)): 100%
kinase still bound, per cent of control (MAP3K11 (human)): 100%
kinase still bound, per cent of control (MAP3K9 (human)): 100%
kinase still bound, per cent of control (MAP4K1 (human)): 100%
kinase still bound, per cent of control (MAPK11 (human)): 100%
kinase still bound, per cent of control (MAPK7 (human)): 30%
kinase still bound, per cent of control (MLTK (human)): 100%
kinase still bound, per cent of control (PAK1 (human)): 92%
kinase still bound, per cent of control (PAK6 (human)): 100%
kinase still bound, per cent of control (PAK7 (human)): 79%
kinase still bound, per cent of control (PIK3CA (human)): 100%
kinase still bound, per cent of control (PIK3CD (human)): 100%
kinase still bound, per cent of control (PKMYT1 (human)): 96%
kinase still bound, per cent of control (PRKACA (human)): 100%
kinase still bound, per cent of control (PRKCE (human)): 60%
kinase still bound, per cent of control (PRKCH (human)): 76%
kinase still bound, per cent of control (PRKG2 (human)): 99%
kinase still bound, per cent of control (PRKX (human)): 83%
kinase still bound, per cent of control (RPS6KA4 KD1 (human)): 100%
kinase still bound, per cent of control (RPS6KA5 KD1 (human)): 100%
kinase still bound, per cent of control (SRMS (human)): 100%
kinase still bound, per cent of control (STK35 (human)): 100%
kinase still bound, per cent of control (STK38L (human)): 100%
kinase still bound, per cent of control (TESK1 (human)): 76%
kinase still bound, per cent of control (TGFBR1 (human)): 97%
kinase still bound, per cent of control (WEE1 (human)): 92%
kinase still bound, per cent of control (WEE2 (human)): 100%
Structure (SMILES): COc1cc(N2CCN(C)CC2)ccc1Nc1ncc2c(n1)N(C)c1ccccc1N(C)C2=O

kinase still bound, per cent of control (BMPR1A (human)): 8%
kinase still bound, per cent of control (TGFBR1 (human)): 24%
Structure (SMILES): CS(=O)(=O)Nc1ccc(-c2cc(/C=C3\SC(=N)NC3=O)c[nH]c2=O)cc1

kinase still bound, per cent of control (BMPR1A (human)): 33%
kinase still bound, per cent of control (EPHA3 (human)): 13%
kinase still bound, per cent of control (MAP3K9 (human)): 28%
kinase still bound, per cent of control (MLTK (human)): 23%
kinase still bound, per cent of control (PAK6 (human)): 14%
kinase still bound, per cent of control (PAK7 (human)): 13%
kinase still bound, per cent of control (RPS6KA4 KD1 (human)): 15%
kinase still bound, per cent of control (TGFBR1 (human)): 34%
Structure (SMILES): N=C1NC(=O)/C(=C/c2ccc(-c3cncc4ccccc34)o2)S1

kinase still bound, per cent of control (ABL1 (human)): 27%
Structure (SMILES): CS(=O)(=O)Nc1ccc(-c2ncc(/C=C3\SC(=N)NC3=O)s2)cc1

kinase still bound, per cent of control (EPHA3 (human)): 17%
kinase still bound, per cent of control (MLTK (human)): 31%
kinase still bound, per cent of control (PAK6 (human)): 29%
kinase still bound, per cent of control (PAK7 (human)): 11%
kinase still bound, per cent of control (STK38L (human)): 29%
Structure (SMILES): O=C1NC(=S)S/C1=C\c1ccc(-c2cncc3ccccc23)o1

kinase still bound, per cent of control (ABL1 (human)): 34%
kinase still bound, per cent of control (BMPR1A (human)): 0.95%
kinase still bound, per cent of control (MLTK (human)): 7.6%
kinase still bound, per cent of control (PAK1 (human)): 9.4%
kinase still bound, per cent of control (STK35 (human)): 30%
kinase still bound, per cent of control (TGFBR1 (human)): 16%
Structure (SMILES): CS(=O)(=O)Nc1ccc(-c2cncc(/C=C3\SC(=N)NC3=O)c2)cc1

kinase still bound, per cent of control (PIK3CA (human)): 9.2%
kinase still bound, per cent of control (PIK3CD (human)): 26%
kinase still bound, per cent of control (SRMS (human)): 33%
Structure (SMILES): N=C1NC(=O)/C(=C/c2ccc(-c3ccc(C(N)=O)cc3O)o2)S1

kinase still bound, per cent of control (DCLK1 (human)): 5.8%
kinase still bound, per cent of control (MAPK7 (human)): 0.1%
Structure (SMILES): CN1C(=O)[C@H]2CCC[C@H]2N(C2CCCC2)c2nc(Nc3ccc(C(N)=O)cc3)ncc21

kinase still bound, per cent of control [2]: 30%
Structure (SMILES): Nc1cccc(-c2cc(/C=C3\SC(=O)NC3=O)c[nH]c2=O)c1
